{"source": "patent US8481546B2", "about": "“CGRP receptor antagonist” (Bristol-Myers Squibb Company, priority 2010, dated 2013)", "key": {"[1]": {"tested_on": "olfactory epithelium (nasal tissues)", "experiment": "One-week comparative intranasal irritation study in rats (Compound I vs Compound III): nasal histology and tolerability", "type": "in vivo", "settings": "1 week", "method": "This study was conducted to compare potential nasal irritation of Compound I to Compound III when given intranasally to male rats for 1 week. Male rats (10/group) were instilled intranasally with Compound I or Compound III solutions ([…] in 225 mM succinic acid, 0.02% benzalkonium chloride, 1.25% anhydrous dextrose, pH 5.8-6.2) once daily at a dose volume of 100 μL/nostril. Using this dosing paradigm, fixed doses of 5, 15 or 35 mg of test article were delivered daily. As a consequence, dosages normalized to body weight decreased with time as the rats grew. One control group was given succinate vehicle and a sham control group was given saline by intranasal instillation. Parameters evaluated included clinical observations, body weight, food consumption, toxicokinetics, and histological evaluation of nasal tissues."}, "[2]": {"tested_on": "olfactory epithelium (nasal turbinates)", "type": "in vivo, rats", "source_text": "Compound I and Compound II were also compared directly for intranasal irritation. […] The only endpoint evaluated in this study was histological evaluation of the nasal turbinates."}, "[3]": {"settings": "nasal instillation 5 mg (0.357 mg/cm^2) once daily"}, "[4]": {"settings": "nasal instillation 15 mg (1.07 mg/cm^2) once daily"}, "[5]": {"settings": "nasal instillation 35 mg (2.50 mg/cm^2) once daily"}, "[6]": {"settings": "12.5 μL/nostril, 75 mg/ml, 1.875 mg/rat/day (0.134 mg/cm^2)"}, "[7]": {"settings": "12.5 μL/nostril, 175 mg/ml, 4.375 mg/rat/day (0.313 mg/cm^2)"}, "[8]": {"settings": "25 μL/nostril, 75 mg/ml, 3.75 mg/rat/day (0.268 mg/cm^2)"}, "[9]": {"settings": "25 μL/nostril, 175 mg/ml, 8.75 mg/rat/day (0.625 mg/cm^2)"}, "[10]": {"settings": "100 μL/nostril, 75 mg/ml, 15 mg/rat/day (1.071 mg/cm^2)"}, "[11]": {"settings": "100 μL/nostril, 175 mg/ml, 35 mg/rat/day (2.500 mg/cm^2)"}}, "note": "Like-named read-outs stand apart in the source and are kept apart here.", "data": [{"smiles": "Cc1cc(C[C@@H](NC(=O)N2CCC(c3cc4ccccc4[nH]c3=O)CC2)C(=O)N2CCC(N3CCCCC3)CC2)cc2cn[nH]c12", "note": "[Compound III, reference compound]", "values": [{"measurement": "Olfactory Epithelial Atrophy, incidence of severity Marked (number of rats)", "setting": "[1]; [3]", "value": 0}, {"measurement": "Olfactory Epithelial Atrophy, incidence of severity Mild (number of rats)", "setting": "[1]; [3]", "value": 2}, {"measurement": "Olfactory Epithelial Atrophy, incidence of severity Minimal (number of rats)", "setting": "[1]; [3]", "value": 6}, {"measurement": "Olfactory Epithelial Atrophy, incidence of severity Moderate (number of rats)", "setting": "[1]; [3]", "value": 0}, {"measurement": "Olfactory Epithelial Atrophy, incidence of severity None (number of rats)", "setting": "[1]; [3]", "value": 1}, {"measurement": "Olfactory Epithelial Atrophy, incidence of severity Marked (number of rats)", "setting": "[1]; [4]", "value": 0}, {"measurement": "Olfactory Epithelial Atrophy, incidence of severity Mild (number of rats)", "setting": "[1]; [4]", "value": 2}, {"measurement": "Olfactory Epithelial Atrophy, incidence of severity Minimal (number of rats)", "setting": "[1]; [4]", "value": 0}, {"measurement": "Olfactory Epithelial Atrophy, incidence of severity Moderate (number of rats)", "setting": "[1]; [4]", "value": 6}, {"measurement": "Olfactory Epithelial Atrophy, incidence of severity None (number of rats)", "setting": "[1]; [4]", "value": 1}, {"measurement": "Olfactory Epithelial Atrophy, incidence of severity Marked (number of rats)", "setting": "[1]; [5]", "value": 1}, {"measurement": "Olfactory Epithelial Atrophy, incidence of severity Mild (number of rats)", "setting": "[1]; [5]", "value": 2}, {"measurement": "Olfactory Epithelial Atrophy, incidence of severity Minimal (number of rats)", "setting": "[1]; [5]", "value": 0}, {"measurement": "Olfactory Epithelial Atrophy, incidence of severity Moderate (number of rats)", "setting": "[1]; [5]", "value": 3}, {"measurement": "Olfactory Epithelial Atrophy, incidence of severity None (number of rats)", "setting": "[1]; [5]", "value": 3}]}, {"smiles": "Cc1cc(C[C@@H](NC(=O)N2CCC(C3Cc4cccc(F)c4NC3=O)CC2)C(=O)N2CCC(N3CCCCC3)CC2)cc2cn[nH]c12", "note": "(stereo partly shown) [Compound II]", "values": [{"measurement": "Olfactory epithelial toxicity, number of animals with severity Mild", "setting": "[2]; [6]", "value": 1}, {"measurement": "Olfactory epithelial toxicity, number of animals with severity None", "setting": "[2]; [6]", "value": 3}, {"measurement": "Olfactory epithelial toxicity, number of animals with severity Slight", "setting": "[2]; [6]", "value": 1}, {"measurement": "Olfactory epithelial toxicity, number of animals with severity Mild", "setting": "[2]; [7]", "value": 1}, {"measurement": "Olfactory epithelial toxicity, number of animals with severity Minimal", "setting": "[2]; [7]", "value": 1}, {"measurement": "Olfactory epithelial toxicity, number of animals with severity None", "setting": "[2]; [7]", "value": 3}, {"measurement": "Olfactory epithelial toxicity, number of animals with severity Minimal", "setting": "[2]; [8]", "value": 2}, {"measurement": "Olfactory epithelial toxicity, number of animals with severity None", "setting": "[2]; [8]", "value": 2}, {"measurement": "Olfactory epithelial toxicity, number of animals with severity Slight", "setting": "[2]; [8]", "value": 1}, {"measurement": "Olfactory epithelial toxicity, number of animals with severity Minimal", "setting": "[2]; [9]", "value": 3}, {"measurement": "Olfactory epithelial toxicity, number of animals with severity None", "setting": "[2]; [9]", "value": 1}, {"measurement": "Olfactory epithelial toxicity, number of animals with severity Slight", "setting": "[2]; [9]", "value": 1}, {"measurement": "Olfactory epithelial toxicity, number of animals with severity Mild", "setting": "[2]; [10]", "value": 1}, {"measurement": "Olfactory epithelial toxicity, number of animals with severity Slight", "setting": "[2]; [10]", "value": 4}, {"measurement": "Olfactory epithelial toxicity, number of animals with severity Mild", "setting": "[2]; [11]", "value": 2}, {"measurement": "Olfactory epithelial toxicity, number of animals with severity Moderate", "setting": "[2]; [11]", "value": 3}]}]}
